Results on twelve molecules are retold here after PubChem BioAssay AID212 (DTP/NCI, 2004).

The structures appear in SMILES notation. Several values for one entry are separate records, joined by “and”; a condition that tells them apart may be missing. Identical values can stand only once. Results filed as inconclusive are left out.

This test deals with BDF1 mice, colon carcinoma 38 sc, T/C %. The test is described as follows: NCI In Vivo Anticancer Drug Screen. Data for tumor model Colon Carcinoma 38 (subcutaneous) in B6D2F1 (BDF1) mice. As to conditions: endpoint: median tumor weight (est.), higher = larger tumour. The method in brief:
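T/C readout: treated group (T) measurement over vehicle control group (C) measurement. Endpoint is survival or tumor size in mice bearing a transplanted tumor.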

The mark [1] stands for this setting: dose: 12.5 mg/kg/injection, schedule: Q07DX002 (ip), vehicle: saline with Tween-80.
[2] abbreviates: dose: 100.0 mg/kg/injection, schedule: Q07DX002 (ip), vehicle: saline with Tween-80.
Where [3] appears, read: dose: 200.0 mg/kg/injection, schedule: Q07DX002 (ip), vehicle: saline with Tween-80.
Setting [4] is: dose: 25.0 mg/kg/injection, schedule: Q07DX002 (ip), vehicle: saline with Tween-80.
[5] abbreviates: dose: 12.5 mg/kg/injection, schedule: Q07DX002 (ip), vehicle: Klucel (hydroxypropylcellulose) (HPC).
Where [6] appears, read: dose: 25.0 mg/kg/injection, schedule: Q07DX002 (ip), vehicle: Klucel (hydroxypropylcellulose) (HPC).
[7] abbreviates: dose: 50.0 mg/kg/injection, schedule: Q07DX002 (ip), vehicle: Klucel (hydroxypropylcellulose) (HPC).
Setting [8] is: dose: 100.0 mg/kg/injection, schedule: Q07DX002 (ip), vehicle: Klucel (hydroxypropylcellulose) (HPC).

On to `O=NN(CCCl)C(=O)NCCO`, for which the T/C is, setting by setting: (dose: 3.12 mg/kg/injection, schedule: Q07DX002 (ip), vehicle: water) 75 % of control; (dose: 12.5 mg/kg/injection, schedule: Q07DX002 (ip), vehicle: water) 18 % of control and 34 % of control; (dose: 25.0 mg/kg/injection, schedule: Q07DX002 (ip), vehicle: water) 14 % of control.
As for `CC(=Nc1ccccc1)C1=C(O)C(Cc2ccccc2)NC1=O` (configuration not stated), the T/C is, setting by setting: under setting [1], 86 % of control and 105 % of control; under setting [2], 45 % of control and 50 % of control; under setting [3], 70 % of control and 82 % of control.
Take `Cc1cc(NCCCCCCNc2cc(C)nc3cc(N(C)C)ccc23)c2ccc(N(C)C)cc2n1`: the T/C was 107 % of control (dose: 6.0 mg/kg/injection, schedule: Q07DX002 (ip), vehicle: distilled water + Tween-80 + alcohol); 99 % of control (dose: 12.5 mg/kg/injection, schedule: Q07DX002 (ip), vehicle: distilled water + Tween-80 + alcohol); 95 % of control (dose: 25.0 mg/kg/injection, schedule: Q07DX002 (ip), vehicle: distilled water + Tween-80 + alcohol); 105 % of control (dose: 50.0 mg/kg/injection, schedule: Q07DX002 (ip), vehicle: distilled water + Tween-80 + alcohol); 90 % of control (dose: 100.0 mg/kg/injection, schedule: Q07DX002 (ip), vehicle: distilled water + Tween-80 + alcohol).
Regarding `O=C(NP(=O)(N1CC1)N1CC1)c1cc(I)ccc1I`, the T/C was 105 % of control (dose: 8.0 mg/kg/injection, schedule: Q07DX002 (ip), vehicle: Klucel (hydroxypropylcellulose) (HPC)); 47 % of control (dose: 16.0 mg/kg/injection, schedule: Q07DX002 (ip), vehicle: Klucel (hydroxypropylcellulose) (HPC)); 92 % of control (dose: 32.0 mg/kg/injection, schedule: Q07DX002 (ip), vehicle: Klucel (hydroxypropylcellulose) (HPC)); 55 % of control (dose: 64.0 mg/kg/injection, schedule: Q07DX002 (ip), vehicle: Klucel (hydroxypropylcellulose) (HPC)); 22 % of control (dose: 128.0 mg/kg/injection, schedule: Q07DX002 (ip), vehicle: Klucel (hydroxypropylcellulose) (HPC)); 31 % of control (dose: 256.0 mg/kg/injection, schedule: Q07DX002 (ip), vehicle: Klucel (hydroxypropylcellulose) (HPC)).
As for `Nc1nnc[se]1`, the T/C was 79 % of control and 100 % of control (dose: 6.25 mg/kg/injection, schedule: Q07DX002 (ip), vehicle: saline with Tween-80); 66 % of control and 73 % of control under setting [1]; 86 % of control and 89 % of control under setting [4]; 50 % of control under setting [3].
Take `Nc1ccccc1N`: the T/C is 75 % of control and 91 % of control under setting [5]; 122 % of control and 102 % of control under setting [6]; 91 % of control under setting [7]; 54 % of control (dose: 400.0 mg/kg/injection, schedule: Q07DX002 (ip), vehicle: Klucel (hydroxypropylcellulose) (HPC)).
Regarding `CC1CN=C(c2ccc(NC(=O)c3ccc(C(=O)Nc4ccc(C5=NCC(C)N5)cc4)cc3)cc2)N1` (configuration not stated), the T/C runs as follows: (dose: 12.5 mg/kg/injection, schedule: Q07DX003 (ip), vehicle: Klucel (hydroxypropylcellulose) (HPC)) 78 % of control and 79 % of control; (dose: 25.0 mg/kg/injection, schedule: Q07DX003 (ip), vehicle: Klucel (hydroxypropylcellulose) (HPC)) 115 % of control and 102 % of control; (dose: 200.0 mg/kg/injection, schedule: Q07DX003 (ip), vehicle: Klucel (hydroxypropylcellulose) (HPC)) 86 % of control; (dose: 400.0 mg/kg/injection, schedule: Q07DX003 (ip), vehicle: Klucel (hydroxypropylcellulose) (HPC)) 63 % of control.
Consider `Cc1c2ccncc2c(C)c2c1[nH]c1ccccc12`, for which the T/C runs as follows: (dose: 10.0 mg/kg/injection, schedule: Q07DX002 (ip), vehicle: distilled water + Tween-80) 63 % of control; under setting [5], 54 % of control and 75 % of control; (dose: 12.5 mg/kg/injection, schedule: Q07DX003 (ip), vehicle: saline with Tween-80) 42 % of control; (dose: 12.5 mg/kg/injection, schedule: Q07DX003 (ip), vehicle: saline) 78 % of control; (dose: 20.0 mg/kg/injection, schedule: Q07DX002 (ip), vehicle: distilled water + Tween-80) 83 % of control and 103 % of control; (dose: 20.0 mg/kg/injection, schedule: Q07DX002 (ip), vehicle: water) 61 % of control. The T/C is 38 % of control (dose: 25.0 mg/kg/injection, schedule: Q07DX003 (ip), vehicle: saline with Tween-80); 69 % of control (dose: 25.0 mg/kg/injection, schedule: Q07DX003 (ip), vehicle: saline); 9 % of control (dose: 40.0 mg/kg/injection, schedule: Q07DX002 (ip), vehicle: water); 45 % of control and 55 % of control (dose: 50.0 mg/kg/injection, schedule: Q07DX003 (ip), vehicle: Klucel (hydroxypropylcellulose) (HPC)); 28 % of control (dose: 50.0 mg/kg/injection, schedule: Q07DX003 (ip), vehicle: saline with Tween-80); 67 % of control (dose: 50.0 mg/kg/injection, schedule: Q07DX003 (ip), vehicle: saline). In addition, the T/C reads like this: (dose: 80.0 mg/kg/injection, schedule: Q07DX002 (ip), vehicle: distilled water + Tween-80) 7 % of control; under setting [8], 12 % of control and 25 % of control; (dose: 100.0 mg/kg/injection, schedule: Q07DX003 (ip), vehicle: Klucel (hydroxypropylcellulose) (HPC)) 12 % of control and 20 % of control; (dose: 100.0 mg/kg/injection, schedule: Q07DX003 (ip), vehicle: saline with Tween-80) 38 % of control; (dose: 100.0 mg/kg/injection, schedule: Q07DX003 (ip), vehicle: saline) 33 % of control; (dose: 200.0 mg/kg/injection, schedule: Q07DX003 (ip), vehicle: saline with Tween-80) 1 % of control. For the same molecule, the T/C (dose: 200.0 mg/kg/injection, schedule: Q07DX003 (ip), vehicle: saline) was 2 % of control.
In the case of `O=C(O)C1Cc2nc[nH]c2CN1CO` (configuration not stated), the T/C under setting [4] was 93 % of control; the T/C (dose: 50.0 mg/kg/injection, schedule: Q07DX002 (ip), vehicle: saline with Tween-80) is 117 % of control and 98 % of control; the T/C under setting [2] is 113 % of control and 99 % of control; the T/C under setting [3] is 86 % of control; the T/C (dose: 400.0 mg/kg/injection, schedule: Q07DX002 (ip), vehicle: saline with Tween-80) was 93 % of control; the T/C (dose: 800.0 mg/kg/injection, schedule: Q07DX002 (ip), vehicle: saline with Tween-80) is 89 % of control.
Take `O=C(O)CSc1c(Cl)c(=O)oc2ccc(Cl)cc12`: the T/C was 93 % of control under setting [6]; 113 % of control under setting [7]; 81 % of control under setting [8]; 120 % of control (dose: 200.0 mg/kg/injection, schedule: Q07DX002 (ip), vehicle: Klucel (hydroxypropylcellulose) (HPC)).
On to `COC(=O)C(Cl)(Cl)N=Nc1c(Cl)cc(Cl)c(C)c1Cl`, for which the T/C (dose: 12.5 mg/kg/injection, schedule: Q07DX002 (ip), vehicle: saline) is 118 % of control; the T/C (dose: 25.0 mg/kg/injection, schedule: Q07DX002 (ip), vehicle: saline) was 123 % of control; the T/C (dose: 50.0 mg/kg/injection, schedule: Q07DX002 (ip), vehicle: saline) was 123 % of control; the T/C (dose: 200.0 mg/kg/injection, schedule: Q07DX002 (ip), vehicle: saline) is 101 % of control.
On to `CCN(CC)CCNc1ccc(CO)c2sc3ccccc3c(=O)c12`, for which the T/C by setting is: (dose: 6.25 mg/kg/injection, schedule: Q07DX003 (ip), vehicle: clinical formulation) 120 % of control; (dose: 6.25 mg/kg/injection, schedule: Q07DX003 (ip), vehicle: water) 90 % of control; (dose: 12.5 mg/kg/injection, schedule: Q07DX003 (ip), vehicle: clinical formulation) 116 % of control; (dose: 12.5 mg/kg/injection, schedule: Q07DX003 (ip), vehicle: water) 103 % of control; (dose: 25.0 mg/kg/injection, schedule: Q07DX003 (ip), vehicle: clinical formulation) 77 % of control; (dose: 25.0 mg/kg/injection, schedule: Q07DX003 (ip), vehicle: water) 114 % of control. Further, the T/C was 63 % of control (dose: 50.0 mg/kg/injection, schedule: Q07DX003 (ip), vehicle: clinical formulation); 30 % of control (dose: 50.0 mg/kg/injection, schedule: Q07DX003 (ip), vehicle: water); 14 % of control (dose: 100.0 mg/kg/injection, schedule: Q07DX003 (ip), vehicle: clinical formulation); 11 % of control (dose: 100.0 mg/kg/injection, schedule: Q07DX003 (ip), vehicle: water).
